Test system: Streptomyces venezuelae ATCC 10712
Experiment: Confrontation assay B. velezensis GA1 / S. venezuelae on REM plate, UPLC-MS metabolite profiling of the agar
Details: gelified REM, 3 days at 26°C
Procedure: Confrontation assays were performed on square Petri dishes (12 × 12 cm) with 40 mL of REM solid medium at 26°C (REM supplemented with 14 g/L of agar).
S. venezuelae ATCC 10712 was inoculated as stripes (1 × 12 cm) in the middle of the plate with 40 µL of spore suspension (10^7 spores/mL) and spread with a cotton swab. Next, B. velezensis GA1 cells were collected from fresh precultures as described and adjusted to OD600 nm 0.1. Then, 5 µL of B. velezensis GA1 suspension was spotted at 1 cm of the Streptomyces line. Control plates were done following the same procedure without the inoculation of either Bacillus or Streptomyces. Plates were then incubated for 3 days at 26°C in the dark. Pictures of the plates were then captured using a CoolPix camera (NIKKOR ×60 wide optical zoom extra-low dispersion vibration reduction 4.3–258.0 mm 1:33 to 6.5).
The extraction of the metabolites from the agar was performed as follows. For the confrontation experiment, we precisely sampled the area of agar (2 × 1 cm) near the colony of Bacillus or Streptomyces (the confrontation zone is 1 cm wide) with standardized plugs. For the in planta, we sampled the agar area (1 × 1 cm) near the tomato roots. In both cases, the agar samples were transferred to Eppendorf tubes and placed for 24 h at −20°C. Then, the agar was thawed at room temperature and centrifuged for 10 min at 13,000 rpm. The supernatants were then collected and filtered (0.22-µm pore size filters) before UPLC-MS analysis.
All UPLC-MS analyses were performed using an Agilent 1290 Infinity II coupled with a diode array detector and a mass detector (Jet Stream ESI-Q-TOF 6530) in positive mode with the parameters set up as follows: capillary voltage of 3.5 kV, nebulizer pressure of 35 lb/in^2, drying gas of 8 L/min, drying gas temperature of 300°C, flow rate of sheath gas of 11 L/min, sheath gas temperature of 350°C, fragmentor voltage of 175 V, skimmer voltage of 65 V, and octopole radiofrequency of 750 V. Accurate mass spectra were recorded in the m/z range of 300–1,700. For untargeted MS/MS, we used the same MS1 parameters as described. We added MS2 untargeted acquisition mode with the parameters as follows: MS/MS range 50–1,700 m/z; MS/MS scan rate 3 spectra/s; isolation width MS/MS medium (approx. 4 AMU), Decision Engine Native; fixed collision energies of 25 and 40 V for surfactin, 50 V for iturin, and 60 V for fengycin experiments; precursor selection: three for the surfactin experiment, four for the iturin and fengycin experiments, threshold 1,500 (Abs), isotope model common, active exclusion after two spectra and release after 0.5 min, sorting the precursors by charge state then abundance (charge state preference 1). For targeted MS/MS, we used the same MS1 parameters MS/MS range of 50–1,700 m/z or 50–3,200 (when required for Pseudomonas CLPs with mass >1,700 Da), MS/MS scan rate 3 spectra/s, isolation width MS/MS narrow (approx. 1.3 amu), and fixed collision energies 20, 40, and 60V. In all experiments, a C18 Acquity UPLC ethylene bridged hybrid column (2.1 mm × 50 mm × 1.7 µm; Waters Corporation, Milford, MA, USA) was used at a flow rate of 0.6 mL/min and a temperature of 40°C. The injection volume was 20 µL, and the diode array detector scanned a wavelength spectrum between 190 and 600 nm. Unless otherwise mentioned, a gradient of acidified water (0.1% formic acid) (solvent A) and of acidified acetonitrile (0.1% formic acid) (solvent B) was used as mobile phase with a constant flow rate of 0.6 mL/min, starting at 10% B and rising to 100% B in 20 min. Solvent B was kept at 100% for 4 min before going back to the initial ratio. MassHunter Workstation (version 10.0) and ChemStation software were used for data collection and analysis. For untargeted analysis of iturin and fengycin degradation products, we used the same solvent and flow rate, starting at 10% B to 20% in 2 min, then rising to 50% B at 14 min and 100% B at 25 min, followed by 100% B and 5 at 10% B at 6 min.

With iturin the “shorter CLP fragment detected in the confrontation zone but not in Bv monoculture” value (UPLC-MS, MS/MS) was “loss of asparagine in position 3” and the “abundance of the CLP in the confrontation zone compared with monocultures” value (agar extract of confrontation zone, UPLC-Q-TOF-MS peak areas, three biological replicates) was “decrease in the abundance”.

From PMC10783051 (Microbiology Spectrum, 2023)
